# Measured values: patent publication US9085562B2, “6-alkyl-N-(pyridin-2-yl)-4-aryloxypicolinamide analogs as mGluR5 negative allosteric modulators and methods of making and using the same” (Vanderbilt University, priority 2011, dated 2015)
# Where two headings read alike, the source gives them in different places.
# Key:
# elevated plus maze = assay: Elevated plus maze; type: in vivo; conditions: 30 mg/kg
# Procedure: Test compounds (1) and (2) were administrated at the 10 mg/kg and 30 mg/kg doses described in this figure. […] Prospective In Vivo Effects
# [1] = tested on: Marble Burying Activity in Mice; assay: Inhibition of marble burying in mice (model of anxiolytic behavior); type: in vivo; conditions: WT and Fmrl KO C57BL/6J mice
# Procedure: It is well known that mice will bury foreign objects such as glass marbles in deep bedding (Deacon, R. M. J. Nature Protocols 2006, 1, 122-124). […] These facts along with the relative convenience of this assay make it a useful in vivo screening tool.
# Doses of compound were suspended in vehicle (10% Tween 80 for intraperitoneal dosing and 0.5% methylcellulose for oral dosing), vortexed vigorously, heated gently with a Master Heat Gun (Master Appliance Corp., Racine, Wis.), and sonicated at 37° C. for 30 minutes. The pH was checked using 0-14 EMD strips and adjusted to approximately 7. All doses were administered at approximately 10 mL/kg.
# Studies were conducted using male Harlan CD-1 mice (Harlan Sprague Dawley, Indianapolis, Ind.), weighing 30 to 35 grams. Subjects were housed in a large colony room under a 12 hour light/dark cycle (lights on at 6:00 a.m.) with food and water provided ad libitum. Test sessions were performed between 10:00 a.m. and 4:00 p.m. All dose groups consisted of ≧10 mice. All experiments were conducted in accordance with the National Institute of Health regulations of animal care covered in Principles of Laboratory Animal Care (National Institutes of Health publication 85-23, revised 1985) and were approved by the Institutional Animal Care and Use Committee.
# Plexiglass cages (32×17×14 cm) were arranged on top of a large, round table. Mice were transported from the colony room to the testing room and allowed to habituate for 30 minutes. […] The novel compound and comparator were evaluated in a counterbalanced design, in which all doses of compounds were tested in each session. […] Clear, perforated plastic lids were set on top of each cage and the amount of marble burying was recorded over a 30 minute interval. The mice were then removed from the cages and the number of buried marbles was counted using the criteria of greater than ⅔ covered by bedding. […]
# The data for the dose-response studies were analyzed by a between-group analysis of variance. […]
# mGluR4 = mGluR4 (Homo sapiens, UniProt Q14833); conditions: cited from earlier work
# [2] = tested on: N-methyl-D-aspartate (NMDA) receptor; conditions: at higher concentrations; cited from earlier work
# [3] = tested on: Marble Burying Activity in Mice; conditions: literature (Spooren 2000; Nicolas 2006); cited from earlier work
# cytochrome P450 1A2 = biological target: T1, cytochrome P450 1A2 (Homo sapiens, UniProt P05177); conditions: cited from earlier work
# T1 sequence (P05177 1-516): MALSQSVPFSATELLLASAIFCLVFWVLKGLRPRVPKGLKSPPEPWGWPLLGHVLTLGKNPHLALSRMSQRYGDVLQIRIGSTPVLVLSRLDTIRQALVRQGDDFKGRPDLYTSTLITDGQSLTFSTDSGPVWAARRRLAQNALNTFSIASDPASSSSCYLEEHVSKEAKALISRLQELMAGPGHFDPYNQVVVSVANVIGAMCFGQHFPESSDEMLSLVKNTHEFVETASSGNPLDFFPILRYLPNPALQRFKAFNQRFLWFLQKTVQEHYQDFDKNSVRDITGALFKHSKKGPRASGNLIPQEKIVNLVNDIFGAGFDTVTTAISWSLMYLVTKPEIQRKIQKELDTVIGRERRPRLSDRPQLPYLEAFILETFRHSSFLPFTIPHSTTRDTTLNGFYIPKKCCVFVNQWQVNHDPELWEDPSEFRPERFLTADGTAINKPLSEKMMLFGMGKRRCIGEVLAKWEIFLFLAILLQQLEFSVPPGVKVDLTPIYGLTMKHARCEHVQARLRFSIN
# [4] = intravenous administration to rhesus monkeys; cited from earlier work
# Permeability/efflux = type: in vitro ADME; conditions: Table 2, Permeability/efflux
# Excerpt: (§1) Additional physicochemical and pharmacological data are provided below in Tables 2-4 for Test Compounds 1 and 2 (Compounds […] and (2) as described herein).
# Human PPB = type: in vitro ADME
# Excerpt: as §1
# [5] = Solubility in SGF and FaSSIF; type: physicochemical
# Excerpt: as §1
# mGluR5 = biological target: T2, mGluR5 (Rattus norvegicus, UniProt P31424); assay: mGluR5 IC50 / NAM profile of Tables 2 and 4; type: cell-based; conditions: Table 2, line under mGluR5 IC50
# T2 construct: expressed in transfected cells
# Procedure: Human embryonic kidney (HEK) cells transfected with rat or human mGluR5 were plated in clear bottom assay plates for assay in a Functional Drug Screening System (FDSS). The cells were loaded with a Ca2+-sensitive fluorescent dye (e.g., Fluo-4), and the plates were washed and placed in the FDSS instrument. Test compound was applied to cells 3 seconds after baseline readings were taken. Cells were incubated with the test compounds for 140 seconds and then stimulated with an EC20 concentration of an mGluR5 agonist (e.g., glutamate, 3,5-dihydroxyphenylglycine, or quisqualate); 60-80 seconds later an EC80 concentration of agonist was added and readings taken for an additional 40 seconds. Data were collected at 1 Hz. […] Concentration response curves were generated using a four parameter logistical equation.
# [6] = Mouse PO PK (plasma and brain concentration); type: in vivo; conditions: Mouse PO 10 mg/kg; for concentration at 0.25 h / concentration at 0.5 h / concentration at 1 h / concentration at 3 h: mouse, po, 10 mg/kg
# Excerpt: as §1
# Mouse BHB = type: in vitro ADME
# Excerpt: as §1
# [7] = SGF, pH 1.6, simulated gastric fluid
# [8] = brain, read-out: Brain Concentration
# [9] = brain, read-out: Free Brain Concentration
# [10] = brain, 3 h, read-out: Brain Concentration
# [11] = brain, 3 h, read-out: Free Brain Concentration
# [12] = plasma, read-out: Plasma Concentration
# T2 sequence (P31424 21-1171 isoform P31424-2 limits assumed): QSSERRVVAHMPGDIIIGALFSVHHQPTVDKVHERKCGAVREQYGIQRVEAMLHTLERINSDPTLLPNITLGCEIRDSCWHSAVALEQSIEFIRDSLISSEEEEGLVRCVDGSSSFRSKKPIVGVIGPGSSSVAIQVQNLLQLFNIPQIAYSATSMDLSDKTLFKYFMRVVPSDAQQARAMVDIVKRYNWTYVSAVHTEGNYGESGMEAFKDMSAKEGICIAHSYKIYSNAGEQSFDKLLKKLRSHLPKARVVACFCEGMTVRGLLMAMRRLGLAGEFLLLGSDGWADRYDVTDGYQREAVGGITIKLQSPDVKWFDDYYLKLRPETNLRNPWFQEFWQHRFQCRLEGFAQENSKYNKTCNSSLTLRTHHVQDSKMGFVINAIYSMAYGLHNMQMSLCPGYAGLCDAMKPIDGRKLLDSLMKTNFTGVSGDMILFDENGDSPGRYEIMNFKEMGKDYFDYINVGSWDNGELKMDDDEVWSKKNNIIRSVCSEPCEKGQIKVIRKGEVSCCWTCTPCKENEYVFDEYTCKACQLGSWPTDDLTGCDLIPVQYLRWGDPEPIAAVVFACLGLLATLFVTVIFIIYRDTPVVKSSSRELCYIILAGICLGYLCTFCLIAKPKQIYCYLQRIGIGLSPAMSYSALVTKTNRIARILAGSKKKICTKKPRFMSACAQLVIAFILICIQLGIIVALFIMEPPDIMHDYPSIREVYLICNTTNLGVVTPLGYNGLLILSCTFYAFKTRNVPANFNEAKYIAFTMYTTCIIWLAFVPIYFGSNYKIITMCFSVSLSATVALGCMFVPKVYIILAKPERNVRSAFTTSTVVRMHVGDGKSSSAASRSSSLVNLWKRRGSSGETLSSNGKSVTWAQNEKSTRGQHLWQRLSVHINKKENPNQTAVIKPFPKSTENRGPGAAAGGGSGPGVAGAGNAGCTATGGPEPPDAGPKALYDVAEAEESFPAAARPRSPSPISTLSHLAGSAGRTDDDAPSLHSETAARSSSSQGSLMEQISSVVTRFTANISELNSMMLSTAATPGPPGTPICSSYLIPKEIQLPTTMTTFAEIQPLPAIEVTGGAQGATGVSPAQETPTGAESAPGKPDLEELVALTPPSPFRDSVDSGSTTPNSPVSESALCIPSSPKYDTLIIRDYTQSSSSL
# Chain of mGluR4 (Q14833 33-912): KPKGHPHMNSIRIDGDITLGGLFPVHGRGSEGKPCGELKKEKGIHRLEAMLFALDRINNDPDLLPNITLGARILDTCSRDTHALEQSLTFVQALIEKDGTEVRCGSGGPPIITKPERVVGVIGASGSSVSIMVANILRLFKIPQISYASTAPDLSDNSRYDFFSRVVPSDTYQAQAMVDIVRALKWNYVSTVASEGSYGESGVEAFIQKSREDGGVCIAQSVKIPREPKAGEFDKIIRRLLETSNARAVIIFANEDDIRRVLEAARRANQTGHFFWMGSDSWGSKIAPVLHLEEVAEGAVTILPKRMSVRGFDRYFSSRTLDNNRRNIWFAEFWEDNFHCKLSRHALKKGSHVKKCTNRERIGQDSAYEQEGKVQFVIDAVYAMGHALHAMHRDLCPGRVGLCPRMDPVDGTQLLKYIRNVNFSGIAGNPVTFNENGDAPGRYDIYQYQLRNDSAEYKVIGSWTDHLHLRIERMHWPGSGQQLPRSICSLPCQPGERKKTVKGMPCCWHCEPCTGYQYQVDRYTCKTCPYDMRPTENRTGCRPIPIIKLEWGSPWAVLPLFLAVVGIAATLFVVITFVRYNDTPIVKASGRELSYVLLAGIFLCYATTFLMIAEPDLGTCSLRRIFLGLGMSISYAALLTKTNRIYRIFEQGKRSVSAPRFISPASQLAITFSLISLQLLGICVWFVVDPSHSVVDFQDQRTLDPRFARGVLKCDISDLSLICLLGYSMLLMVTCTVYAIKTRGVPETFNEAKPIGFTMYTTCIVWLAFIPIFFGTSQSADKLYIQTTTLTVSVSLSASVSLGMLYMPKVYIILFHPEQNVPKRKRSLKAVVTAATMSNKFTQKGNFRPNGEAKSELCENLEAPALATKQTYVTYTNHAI
structure (smiles),measurement,setting,value
"Cc1cc(Oc2cncnc2)cc(C(=O)Nc2ccc(F)cn2)n1 [Compound (2), N-(5-fluoropyridin-2-yl)-6-methyl-4-(pyrimidin-5-yloxy)picolinamide]",time spent in the open arms,elevated plus maze,statistically significant increase in the time spent in the open arms
same,total distance traveled,elevated plus maze,statistically significant beneficial effect
same,inhibition of marble burying vs. vehicle,"[1]; 3 mg/kg PO 15 min prior to testing, 0.5% MC, 30 min burying",inhibition of marble burying was observed
same,inhibition of marble burying vs. vehicle,"[1]; 10 mg/kg PO 15 min prior to testing, 0.5% MC, 30 min burying",inhibition of marble burying was observed
"Cc1cccc(C#Cc2ccccc2)n1 [MPEP, 2-methyl-6-(phenylethynyl)pyridine]",activity at mGluR4,mGluR4,positive allosteric modulator of mGluR4
same,effect on NMDA receptor activity,[2],directly inhibit the N-methyl-D-aspartate (NMDA) receptor activity
same,effect in marble burying model,[3],effective in this model
"Cc1nc(C#Cc2cccnc2)cs1 [MTEP, 3-[(2-methyl-1,3-thiazol-4-yl)ethynyl]pyridine]",inhibition of cytochrome P450 1A2,cytochrome P450 1A2,potent inhibitor of cytochrome P450 1A2
same,clearance,[4],efficiently cleared
"Cc1nc(C#Cc2ccc(-c3cc(F)cc(C#N)c3)nc2)cs1 [STX107, reference compound]",inhibition of marble burying vs. vehicle,"[1]; positive control, 10 mg/kg free base IP 60 min ptx",inhibition of marble burying was observed
"Cc1cc(Oc2cncnc2)cc(C(=O)Nc2ccc(F)cn2)n1 [drawing 263, N-(5-fluoropyridin-2-yl)-6-methyl-4-(pyrimidin-5-yloxy)picolinamide]",Permeability,Permeability/efflux,Predicted high
same,efflux,Permeability/efflux,no efflux
same,"Human PPB, %",Human PPB,91.4%
same,solubility,"[5]; FaSSIF, pH 6.5, fassif",47 µg/mL
same,solubility,[5]; [7],205 µg/mL
same,mGluR5 mode of action,mGluR5,NAM
"Cc1cc(Oc2cncc(F)c2)cc(C(=O)Nc2ccc(F)cn2)n1 [drawing 264, N-(5-fluoropyridin-2-yl)-4-((5-fluoropyridin-3-yl)oxy)-6-methylpicolinamide]",Permeability,Permeability/efflux,Predicted high
same,efflux,Permeability/efflux,no efflux
same,"Human PPB, %",Human PPB,98.5%
same,solubility,"[5]; FaSSIF, pH 6.5, fassif",7 µg/mL
same,solubility,[5]; [7],70 µg/mL
same,mGluR5 mode of action,mGluR5,NAM
Cc1cc(Oc2cncnc2)cc(C(=O)Nc2ccc(F)cn2)n1 [drawing 269],Plasma Concentration (nM),[6]; 1 h,BLQ
same,Plasma Concentration (nM),[6]; 3 h,BLQ
same,concentration at 0.25 h,[6]; [8],195 nM
same,concentration at 0.25 h,[6]; [9],15.2 nM
same,concentration at 0.5 h,[6]; [8],345 nM
same,concentration at 0.5 h,[6]; [9],26.9 nM
same,concentration at 1 h,"[6]; brain, 1 h, read-out: Brain Concentration",9.9 nM
same,concentration at 1 h,"[6]; brain, 1 h, read-out: Free Brain Concentration",0.8 nM
same,concentration at 3 h,[6]; [10],9.2 nM
same,concentration at 3 h,[6]; [11],0.7 nM
same,concentration at 0.25 h,[6]; [12],33.2 nM
same,concentration at 0.5 h,[6]; [12],77.4 nM
same,Mouse BHB (%),Mouse BHB,92.2%
Cc1cc(Oc2cncc(F)c2)cc(C(=O)Nc2ccc(F)cn2)n1 [drawing 270],Brain Concentration (nM),[6]; 1 h,BLQ
same,Plasma Concentration (nM),[6]; 1 h,BLQ
same,concentration at 0.25 h,[6]; [8],176 nM
same,concentration at 0.25 h,[6]; [9],2.6 nM
same,concentration at 0.5 h,[6]; [8],143 nM
same,concentration at 0.5 h,[6]; [9],2.1 nM
same,concentration at 3 h,[6]; [10],19.6 nM
same,concentration at 3 h,[6]; [11],0.3 nM
same,concentration at 0.25 h,[6]; [12],48.3 nM
same,concentration at 0.5 h,[6]; [12],30.7 nM
same,concentration at 3 h,"[6]; plasma, 3 h, read-out: Plasma Concentration",3.2 nM
same,Mouse BHB (%),Mouse BHB,98.5%
"CN1CC(=O)N=C1NC(=O)Nc1cccc(Cl)c1 [fenobam, 1-(3-chlorophenyl)-3-(1-methyl-4-oxo-4,5-dihydro-1H-imidazol-2-yl)urea]",effect in marble burying model,[3],effective in this model
